Assay results taken from ChEMBL document CHEMBL1130389, “Synthesis and ligand binding studies of 4'-iodobenzoyl esters of tropanes and piperidines at the dopamine transporter” (J Med Chem, 1997).

These compounds were tested against Sodium-dependent dopamine transporter (Rattus norvegicus, UniProt P23977) (assay: Compound was tested for inhibitory activity to displace [3H]WIN-35428 at dopamine transporter in Rat Striatal Membranes.).
Sequence of Sodium-dependent dopamine transporter (P23977 whole entry): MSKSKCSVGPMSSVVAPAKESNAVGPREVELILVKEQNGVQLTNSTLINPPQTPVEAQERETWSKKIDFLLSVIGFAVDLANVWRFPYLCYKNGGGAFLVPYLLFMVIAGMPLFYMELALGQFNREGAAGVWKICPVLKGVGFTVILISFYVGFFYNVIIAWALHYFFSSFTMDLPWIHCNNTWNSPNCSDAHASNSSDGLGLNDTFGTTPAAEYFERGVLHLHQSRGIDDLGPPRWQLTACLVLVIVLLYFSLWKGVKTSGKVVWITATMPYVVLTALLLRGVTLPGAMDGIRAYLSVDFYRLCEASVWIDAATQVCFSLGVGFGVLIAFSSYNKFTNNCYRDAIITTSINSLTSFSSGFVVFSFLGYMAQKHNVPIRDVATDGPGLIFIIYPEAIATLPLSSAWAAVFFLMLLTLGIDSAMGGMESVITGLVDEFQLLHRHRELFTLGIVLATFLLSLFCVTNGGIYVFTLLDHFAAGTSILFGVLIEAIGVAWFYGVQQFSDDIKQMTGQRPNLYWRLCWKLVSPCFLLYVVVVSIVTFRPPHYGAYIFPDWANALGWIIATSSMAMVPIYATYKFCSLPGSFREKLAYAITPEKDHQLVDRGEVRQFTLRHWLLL

Row | Structure (SMILES) | IC50
1 | CN1CCC(OC(=O)c2ccc(I)cc2)CC1 | 11600 nM
2 | COC(=O)[C@H]1[C@@H](OC(=O)c2ccccc2O)C[C@H]2CC[C@H]1N2C | 25.2 nM
3 | COC(=O)[C@@H]1C2CC[C@H](C[C@@H]1OC(=O)c1cccc(O)c1)N2C | 1180 nM
4 | COC(=O)[C@H]1[C@@H](OC(=O)c2ccccc2OC(C)=O)CC2CC[C@H]1N2C | 69.5 nM
5 | COC(=O)C1CN(C)CC[C@@H]1OC(=O)c1ccc(I)cc1 (some centres not stated) | 8060 nM
6 | COC(=O)[C@@H]1C2CC[C@H](C[C@@H]1OC(=O)c1ccc(O)cc1)N2C | 153 nM
7 | COC(=O)[C@H]1[C@@H](OC(=O)c2ccc(I)cc2O)C[C@H]2CC[C@H]1N2C | 215 nM
